From paper PMC3960879 (Biology, 2013)
Like-named read-outs stand apart in the source and are kept apart here.

How the values were obtained:
[1] = molecular target: F17fG receptor-binding domain (Escherichia coli, UniProt Q9RH91); experiment: Surface plasmon resonance steady-state affinity, immobilized F17fG; details: SPR steady state, 25 °C, pH 7.4; read-out: Affinity range (Kd class), F17fG
Experimental: (§1) The affinity profiles were determined by surface plasmon resonance (SPR) measurements using a BiaCore 3000 instrument (GE Healthcare). […] The proteins were covalently immobilized on CM5 sensor chips (Biacore AB) to an average density of 2000 RU (resonance units in pg/mm^2). On each chip, one flow cell was coated with a camel single domain antibody for use as a reference cell. The other three flow cells (Fc2, Fc3 and Fc4) were coated with three different F17G variants. Carbohydrate concentrations ranging from 10 µM to 10 mM in running buffer (20 mM Hepes, pH 7.4; 150 mM NaCl; 3 mM EDTA and 0.005% surfactant Tween 20) were incubated for one minute on all flow cells simultaneously, at 25 °C and at a flow rate of 30 µL/min. Complete dissociation of the carbohydrates in running buffer was verified before starting a new binding cycle. All binding cycles were performed in duplicate, including a zero concentration cycle (injection of pure running buffer). All analysis was done using the BIAeval software. In each case the equilibrium resonance signal from the reference cell was subtracted from that of the various F17G flow cells (2-1, 3-1, 4-1). A Langmuir binding isotherm with a 1:1 stoichiometry was fitted to the data, from which the equilibrium dissociation constants, Kd, were obtained.

[2] = molecular target: F17eG receptor-binding domain; experiment: Surface plasmon resonance steady-state affinity, immobilized F17eG; parameters: species or system Escherichia coli; details: SPR steady state, 25 °C, pH 7.4
Experimental: as §1

[3] = molecular target: T1, F17aG receptor-binding domain (Escherichia coli, UniProt Q99003); experiment: biochemical; details: SPR steady state, 25 °C, pH 7.4
T1 construct: variants of the lectin domains with oligolysine (4Lys) tails have been constructed; made in house; host or cells: E. coli (periplasm)
T1 sequence (Q99003 23-199): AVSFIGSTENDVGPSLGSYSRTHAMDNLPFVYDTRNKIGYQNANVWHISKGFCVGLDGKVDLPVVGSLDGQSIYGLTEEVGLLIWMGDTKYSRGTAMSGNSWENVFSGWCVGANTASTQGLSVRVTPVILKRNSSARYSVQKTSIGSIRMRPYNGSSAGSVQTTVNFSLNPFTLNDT
Experimental: as §1

F17eG lectin domain = experiment: CFG mammalian printed glycan array version 2 (experiment 400), F17eG; format: binding, Escherichia coli; details: CFG glycan array version 2; F17G at 200 µg/mL; SEM in parentheses
Source text: (§2) The slide was dried under a stream of nitrogen.

F17bG lectin domain = F17bG lectin domain (Escherichia coli, UniProt Q47200); details: CFG glycan array version 2; F17G at 200 µg/mL; SEM in parentheses
Chain of F17bG lectin domain (Q47200 23-199): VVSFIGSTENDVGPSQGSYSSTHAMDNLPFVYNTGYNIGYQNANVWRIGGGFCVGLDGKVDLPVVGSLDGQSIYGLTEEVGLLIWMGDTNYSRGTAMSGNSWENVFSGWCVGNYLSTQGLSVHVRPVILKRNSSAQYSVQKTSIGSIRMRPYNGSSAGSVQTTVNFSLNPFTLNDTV
Experimental: (§3) A microarray presenting 264 different glycans (mammalian printed array version 2) was used to evaluate if the F17G variant lectin domains differ in the range of glycan receptors that they recognize, thereby establishing tropism. The microarray was set up within the Consortium for Functional Glycomics (CFG) ([20], and supplemental data). Binding of F17G (200 µg/mL) was detected using anti-F17G polyclonal rabbit IgG (10 µg/mL), followed by fluorescently labelled goat anti-rabbit polyclonal antibodies (IgG-488, 5 µg/mL).
(§4) A microarray presenting 264 different glycans (mammalian printed array version 2 from the CFG, experiment 400) was used to evaluate whether the F17G variant lectin domains differ in the range of glycan receptors that they can recognize, thereby establishing strain-dependent tropism. […] The glycan array screening has been repeated for F17aG only on printed array version 4.1 (experiment 2053) (Figure 1).
(§5) Printed array version 2 at the Consortium for Functional Glycomics was used for glycan array screening of the variant F17G receptor binding domains. Slides were printed, with six replicates for each glycan, using glycan spotting concentrations of 100 μM, at the Consortium Carbohydrate Synthesis/Protein Expression Core D located at the Scripps Research Institute onto Schott Nexterion H slides (Schott Cat. No. 1070936B). Slide conditioning: preprinted slides were soaked in deionized water for 5 minutes at room temperature and dried under a stream of nitrogen. TSM buffer (20 mM Tris-HCl, pH 7.4, or MOPS 20 mM; 150 mM NaCl; 2 mM CaCl2, 2 mM MgCl2) was used as wash buffer (TSM buffer + 0.05% Tween 20) or binding buffer (TSM buffer + 0.05% Tween 20 + 1% BSA). (1) F17G was diluted to 200 μg/mL (Figure 1) in TSM binding buffer. (2) 50 μL of F17G was applied to the printed surface and coverslipped. (3) The slide was incubated, protected from light, in a humidified chamber for 1 hour at RT. (4) The slide was washed once in TSM wash buffer. 50 μL of the anti-F17G (10 μg/mL) polyclonal rabbit IgG were applied, coverslipped and incubated for 1 h at RT. (5) The slide was washed once in TSM wash buffer. Fifty μL of fluorescently labelled secondary goat anti-rabbit polyclonal antibodies (IgG-488, 5 µg/mL) were applied, coverslipped and incubated for 1 h at RT. (6) Slide was removed, followed by the coverslip, and washed for 10 s each in TSM wash buffer, TSM wash buffer lacking Tween 20, and deionized water. The slide was dried under a stream of nitrogen. (7) The binding image was read in a Perkin Elmer Microscanarray XL4000 scanner and tiff file of image stored. (8) Image analysis was performed using Imagene (V.6) image analysis software. (9) Raw data results files were generated in Excel format and uploaded to the Consortium database as .dat files. (10) Imagene data was uploaded to the database as .txt files.

F17aG lectin domain = F17aG lectin domain (Escherichia coli, UniProt Q99003); details: CFG glycan array version 2; F17G at 200 µg/mL; SEM in parentheses
Chain of F17aG lectin domain (Q99003 23-199): as the sequence (Q99003 23-199) above
Experimental: as §3, §4, §5

F17dG lectin domain = F17dG lectin domain (Escherichia coli, UniProt Q47199); details: CFG glycan array version 2; F17G at 200 µg/mL; SEM in parentheses
Chain of F17dG lectin domain (Q47199 23-199): as the sequence (Q99003 23-199) above, with L16P, D33N, R35G, K37N, H47R, K90N counted along it
Experimental: as §3, §4, §5

F17fG lectin domain = experiment: CFG mammalian printed glycan array version 2 (experiment 400), F17fG; format: binding, Escherichia coli; details: CFG glycan array version 2; F17G at 200 µg/mL; SEM in parentheses
Source text: as §2

[4] = good fit for at least three related experiments, read-out: dissociation constant Kd, F17eG
[5] = read-out: Affinity range (Kd class), F17eG
[6] = good fit for at least three related experiments, read-out: dissociation constant Kd, F17aG
[7] = read-out: Affinity range (Kd class), F17aG

Chain of F17fG receptor-binding domain (Q9RH91 23-198): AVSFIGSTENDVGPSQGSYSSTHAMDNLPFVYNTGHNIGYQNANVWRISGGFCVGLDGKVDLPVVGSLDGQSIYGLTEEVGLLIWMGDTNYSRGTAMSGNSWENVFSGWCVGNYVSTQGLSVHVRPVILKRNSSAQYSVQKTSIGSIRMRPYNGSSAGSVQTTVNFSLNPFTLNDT

Molecule	Kd [1]	Kd [2, 4]	Kd [2, 5]	Kd [3, 6]	Kd [3, 7]	Relative Fluorescence Units (RFU), averaged over six replicates, F17eG (F17eG lectin domain)	Relative Fluorescence Units (RFU), averaged over six replicates, F17bG (F17bG lectin domain)	Relative Fluorescence Units (RFU), averaged over six replicates, F17aG (F17aG lectin domain)	Relative Fluorescence Units (RFU), averaged over six replicates, F17dG (F17dG lectin domain)	Relative Fluorescence Units (RFU), averaged over six replicates, F17fG (F17fG lectin domain)
GM1 ganglioside	> 100000 µM	–	–	–	–	–	–	–	–	–
CC(=O)N[C@H]1[C@H](O[C@@H]2[C@@H](OC[C@H]3OC(O)[C@@H](O)[C@@H](O[C@H]4O[C@H](CO)[C@@H](O)[C@H](O)[C@@H]4O[C@@H]4O[C@H](CO)[C@@H](O)[C@H](O)[C@H]4NC(C)=O)[C@@H]3O)O[C@H](CO)[C@@H](O)[C@@H]2O)O[C@H](CO)[C@@H](O)[C@@H]1O (some centres unmarked) [GlcNAcβ1,2Manα1,6(GlcNAcβ1,2Manα1,3)Man]	–	3000 µM	1000 to 10000 µM	3000 µM	1000 to 10000 µM	–	–	–	–	–
CO[C@@H]1O[C@H](CO)[C@H](O)[C@H](O)[C@H]1O[C@@H]1O[C@H](CO)[C@@H](O)[C@H](O)[C@H]1NC(C)=O [GlcNAcβ1,2Gal, GlcNAc(β1-2)Galβ1OMe]	–	2000 µM	1000 to 10000 µM	4200 µM	1000 to 10000 µM	–	–	–	–	–
CC(=O)N[C@H]1[C@H](OCCN)O[C@H](CO)[C@@H](O)[C@@H]1O [GlcNAcβ-Sp0]	–	–	–	–	–	34,825 (6,475) RFU	14,972 (2,705) RFU	15,621 (2,697) RFU	3,377 (643) RFU	5,354 (1,572) RFU
GlcNAcβ1,3Galβ1,4Glcβ-Sp0	–	–	–	–	–	54,005 (5,715) RFU	13,149 (2,286) RFU	57,013 (5,191) RFU	29,181 (3,281) RFU	26,336 (7,255) RFU
(GlcNAcβ1,3(GlcNAcβ1,6)GlcNAcβ1,4)GlcNAc-Sp8	–	–	–	–	–	50,775 (6,375) RFU	6,148 (1,367) RFU	20,305 (2,023) RFU	8,080 (1,518) RFU	2,992 (992) RFU
CO[C@@H]1O[C@H](CO)[C@H](O[C@@H]2O[C@H](CO)[C@@H](O)[C@H](O)[C@H]2NC(C)=O)[C@H](O)[C@H]1O [GlcNAcβ1,4Gal, GlcNAc(β1-4)Galβ1OMe]	–	2700 µM	1000 to 10000 µM	3300 µM	1000 to 10000 µM	–	–	–	–	–
NCCCO[C@@H]1O[C@H](CO)[C@@H](O)[C@H](O)[C@H]1N [GlcNH2β-Sp8]	–	–	–	–	–	548 (256) RFU	7,281 (1,506) RFU	554 (117) RFU	1,950 (1,358) RFU	1,385 (464) RFU
Galβ1,4GlcNAcβ-Sp0	–	–	–	–	–	19,659 (4,594) RFU	1,974 (289) RFU	1,703 (1,070) RFU	249 (94) RFU	1,279 (106) RFU
